Laboratory results as given in patent publication US10508086B2 (CANCER RESEARCH TECHNOLOGY LIMITED, priority 2014, dated 2019).

Target: Human Full Length PARG (Homo sapiens (Human), UniProt Q86W56)
Test: PARG in vitro enzyme assay (TR-FRET)
Assay type: biochemical
Details: read-out: PARG_EC50_ENZYME
Method: PARG In vitro assays were conducted in a total volume of 15 ul in a standard 384 well format. 5 ul of Human Full Length PARG (Produced internally by Astra Zeneca), used at a final reaction concentration of […], was added to 5 ul of Ribosylated PARP substrate (also produced internally by Astra Zeneca) at final reaction concentration of 4.5 nM in assay buffer (50 mM Tris pH7.4, 0.1 mg/ml BSA, 3 mM EDTA, 0.4 mM EGTA, 1 mM DTT, 0.01% Tween 20, 50 mM KCl). The reaction was incubated at room temperature for 10 minutes and then 5 ul detection reagent was added. Detection Reagent consists of 42 nM MAb Anti-6HIS XL665 (CisBio: 61 HISXLB) and 2.25 nM Streptavidin Europium Cryptate (CisBio: 610SAKLB), both at 3× working stock concentrations (final concentrations of 14 nM and 0.75 nM respectively), in a detection buffer of 50 mM Tris pH7.4, BSA at 0.1 mg/ml and KF at 100 mM. Following incubation at room temperature for 60 minutes in the dark, TR-FRET signal was measured at Ex 340 and Em 665 and Em 620. A ratio was calculated as Em665/EM620×104 for each well and used to calculate percent inhibition for test compounds.

Human Full Length PARG, sequence (Q86W56 whole entry): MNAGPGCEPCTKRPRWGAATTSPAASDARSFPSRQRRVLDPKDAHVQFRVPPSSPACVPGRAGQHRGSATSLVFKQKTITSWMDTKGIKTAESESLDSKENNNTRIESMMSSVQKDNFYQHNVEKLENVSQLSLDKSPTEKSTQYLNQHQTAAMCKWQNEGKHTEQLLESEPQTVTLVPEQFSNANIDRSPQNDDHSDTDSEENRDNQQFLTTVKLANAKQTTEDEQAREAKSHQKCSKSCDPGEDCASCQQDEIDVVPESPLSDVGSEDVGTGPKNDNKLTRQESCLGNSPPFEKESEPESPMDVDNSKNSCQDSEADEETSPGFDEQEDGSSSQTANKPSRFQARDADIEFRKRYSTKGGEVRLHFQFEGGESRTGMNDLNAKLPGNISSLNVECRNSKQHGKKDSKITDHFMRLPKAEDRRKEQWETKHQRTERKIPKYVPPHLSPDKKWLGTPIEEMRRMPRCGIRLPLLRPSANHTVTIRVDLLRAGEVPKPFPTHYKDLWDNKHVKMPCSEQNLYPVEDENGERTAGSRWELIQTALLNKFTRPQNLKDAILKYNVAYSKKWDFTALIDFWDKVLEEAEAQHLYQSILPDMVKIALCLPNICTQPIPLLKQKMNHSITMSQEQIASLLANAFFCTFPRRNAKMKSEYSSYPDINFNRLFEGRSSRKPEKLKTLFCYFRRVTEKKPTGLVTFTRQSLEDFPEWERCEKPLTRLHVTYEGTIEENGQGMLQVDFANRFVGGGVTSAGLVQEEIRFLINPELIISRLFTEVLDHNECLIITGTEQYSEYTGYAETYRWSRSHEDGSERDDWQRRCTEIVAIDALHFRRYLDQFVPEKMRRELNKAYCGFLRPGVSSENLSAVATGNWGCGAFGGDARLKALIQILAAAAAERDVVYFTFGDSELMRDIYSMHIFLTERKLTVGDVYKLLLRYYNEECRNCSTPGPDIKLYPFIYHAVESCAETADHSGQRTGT

| EC50 [nM] | SMILES |
| --- | --- |
| 5960 | CNC(=O)c1noc(Cn2c(=O)n(C)c3cc(S(=O)(=O)NC4(C)CC4)ccc32)n1 [Example 60] |
| 6060 | Cn1c(=O)n(Cc2cccc(C(N)=O)c2)c2ccc(S(=O)(=O)NC3(C)CC3)cc21 [Example 61] |
| 5900 | Cn1c(=O)n(Cc2ccc([N+](=O)[O-])o2)c2ccc(S(=O)(=O)NC3(C)CC3)cc21 [Example 62] |
| 4170 | CC(=O)Nc1ccc(Cn2c(=O)n(C)c3cc(S(=O)(=O)NC4(C)CC4)ccc32)cc1 [Example 63] |
| 8500 | Cn1nccc1Cn1c(=O)n(C)c2cc(S(=O)(=O)NC3(C)CC3)ccc21 [Example 64] |
| 9800 | Cc1ncc(Cn2c(=O)n(C)c3cc(S(=O)(=O)NC4(C)CC4)ccc32)s1 [Example 65] |
| 1350 | CCOC(=O)n1c(=O)n(C)c2ccc(S(=O)(=O)NC3(C)CC3)cc21 [Example 66] |
| 4450 | Cn1c(=O)n(-c2ccc(/C=C/C(=O)O)o2)c2cc(S(=O)(=O)NC3(C)CC3)ccc21 [Example 67, (E)-3-[5-[3-Methyl-6-[(1-methylcyclopropyl)sulfamoyl]-2-oxo-benzimidazol-1-yl]-2-furyl]prop-2-enoic acid] |
| 902 | Cc1nnc(-n2c(=O)n(C)c3ccc(S(=O)(=O)NC4(C)CC4)cc32)s1 [Example 68] |
| 3210 | Cn1c(=O)n(-c2ncc(/C=C/C(=O)O)s2)c2cc(S(=O)(=O)NC3(C)CC3)ccc21 [Example 69, (E)-3-[2-[3-methyl-6-[(1-methylcyclopropyl)sulfamoyl]-2-oxo-benzimidazol-1-yl]thiazol-5-yl]prop-2-enoic acid] |
| 804 | Cn1c(=O)n(-c2ncc(CCC(=O)O)s2)c2cc(S(=O)(=O)NC3(C)CC3)ccc21 [Example 70, 3-[2-[3-Methyl-6-[(1-methylcyclopropyl)sulfamoyl]-2-oxo-benzimidazol-1-yl]thiazol-5-yl]propanoic acid] |
| 7050 | CN(C)C(=O)CCc1cnc(-n2c(=O)n(C)c3ccc(S(=O)(=O)NC4(C)CC4)cc32)s1 [Example 71, N, N-Dimethyl-3-[2-[3-methyl-6-[(1-methylcyclopropyl)sulfamoyl]-2-oxo-benzimidazol-1-yl]thiazol-5-yl]propanamide] |
| 8300 | CC1(NS(=O)(=O)c2ccc3c(c2)[nH]c(=O)n3Cc2ccc(F)cc2)CC1 [Example 72, 1-[(4-Fluorophenyl)methyl]-N-(1-methylcyclopropyl)-2-oxo-3H-benzimidazole-5-sulfonamide] |
| 9730 | CNC(=O)CCc1cnc(-n2c(=O)n(C)c3ccc(S(=O)(=O)NC4(C)CC4)cc32)s1 [Example 74, N-methyl-3-[2-[3-methyl-6-[(1-methylcyclopropyl)sulfamoyl]-2-oxo-benzimidazol-1-yl]thiazol-5-yl]propanamide] |
| 925 | CCOC(=O)n1c(=O)n(Cc2ccc(F)cc2)c2ccc(S(=O)(=O)NC3(C)CC3)cc21 [Example 75] |
| 2710 | CC1(NS(=O)(=O)c2ccc3c(c2)n(-c2nccs2)c(=O)n3Cc2ccc(F)cc2)CC1 [Example 76] |
| 5000 | Cn1c(=O)n(-c2nncs2)c2cc(S(=O)(=O)NC3(C)CC3)ccc21 [Example 77] |
| 717 | Cn1c(=O)n(-c2nnc(C(F)(F)F)s2)c2cc(S(=O)(=O)NC3(C)CC3)ccc21 [Example 78] |
| 732 | Cc1nnc(-n2c(=O)[nH]c3ccc(S(=O)(=O)NC4(C)CC4)cc32)s1 [Example 80, N-(1-Methylcyclopropyl)-3-(5-methyl-1,3,4-thiadiazol-2-yl)-2-oxo-1H-benzimidazole-5-sulfonamide] |
| 684 | Cc1nnc(-n2c(=O)n(CCN(C)C)c3ccc(S(=O)(=O)NC4(C)CC4)cc32)s1 [Example 85] |

| EC50 [nM] | SMILES |
| --- | --- |
| 9270 | Cc1nc(C)c(Cn2c(=O)[nH]c3cc(S(=O)(=O)NC4(C)CC4)ccc32)s1 [Example 89, 1-[(2,4-Dimethylthiazol-5-yl)methyl]-N-(1-methylcyclopropyl)-2-oxo-3H-benzimidazole-5-sulfonamide] |
| 1340 | Cc1nc(C)c(Cn2c(=O)n(-c3cnsc3)c3cc(S(=O)(=O)NC4(C)CC4)ccc32)s1 [Example 93] |
| 1460 | Cc1nnc(-n2c(=O)[nH]c3ccc(S(=O)(=O)NC4(C)CC4)cc32)o1 [Example 94, N-(1-Methylcyclopropyl)-3-(5-methyl-1,3,4-oxadiazol-2-yl)-2-oxo-1H-benzimidazole-5-sulfonamide] |
| 740 | Cc1nc(C)c(Cn2c(=O)n(-c3cscn3)c3cc(S(=O)(=O)NC4(C)CC4)ccc32)s1 [Example 95] |
| 7030 | Cc1nc(C)c(Cn2c(=O)n(-c3ccn(C)n3)c3cc(S(=O)(=O)NC4(C)CC4)ccc32)s1 [Example 96] |
| 816 | Cc1nc(C)c(Cn2c(=O)n(-c3cncs3)c3cc(S(=O)(=O)NC4(C)CC4)ccc32)s1 [Example 97] |
| 1520 | Cc1csc(-n2c(=O)n(Cc3sc(C)nc3C)c3ccc(S(=O)(=O)NC4(C)CC4)cc32)n1 [Example 106] |
| 878 | Cc1nc(C)c(Cn2c(=O)n(-c3cccnn3)c3cc(S(=O)(=O)NC4(C)CC4)ccc32)s1 [Example 109] |
| 234 | Cc1nc(C)c(Cn2c(=O)n(-c3nncs3)c3cc(S(=O)(=O)NC4(C)CC4)ccc32)s1 [Example 110] |
| 632 | Cc1nc(C)c(Cn2c(=O)n(C3=CCCC3)c3cc(S(=O)(=O)NC4(C)CC4)ccc32)s1 [Example 113] |
| 679 | Cc1nnc(-n2c(=O)n(C)c3c(F)cc(S(=O)(=O)NC4(C)CC4)cc32)s1 [Example 114, 7-Fluoro-1-methyl-N-(1-methylcyclopropyl)-3-(5-methyl-1,3,4-thiadiazol-2-yl)-2-oxo-benzimidazole-5-sulfonamide] |
| 2320 | Cc1nnc(-n2ccc3ccc(S(=O)(=O)NC4(C)CC4)cc32)s1 [Example 115, N-(1-Methylcyclopropyl)-1-(5-methyl-1,3,4-thiadiazol-2-yl)indole-6-sulfonamide] |
| 867 | Cc1nnc(-n2c(Cc3cnn(C)c3)nc3ccc(S(=O)(=O)NC4(C)CC4)cc32)s1 [Example 120] |
| 1020 | Cc1nnc(-n2c(CCc3cnn(C)c3)nc3ccc(S(=O)(=O)NC4(C)CC4)cc32)s1 [Example 121] |
| 1530 | Cc1nnc(-n2c(C)nc3ccc(S(=O)(=O)NC4(C)CC4)cc32)s1 [Example 122] |
| 734 | Cc1nnc(-n2c(=O)n(C)c3c(C(F)(F)F)cc(S(=O)(=O)NC4(C)CC4)cc32)s1 [Example 123, 1-Methyl-N-(1-methylcyclopropyl)-3-(5-methyl-1,3,4-thiadiazol-2-yl)-2-oxo-7-(trifluoromethyl)benzimidazole-5-sulfonamide] |
| 7680 | CC(=O)NCc1nc2ccc(S(=O)(=O)NC3(C)CC3)cc2n1-c1nnc(C)s1 [Example 124] |
| 2560 | Cc1nnc(-n2c(CCN)nc3ccc(S(=O)(=O)NC4(C)CC4)cc32)s1 [Example 125] |
| 4280 | Cc1nnc(-n2cc(Cc3ccccc3)c3ccc(S(=O)(=O)NC4(C)CC4)cc32)s1 [Example 126, 3-Benzyl-N-(1-methylcyclopropyl)-1-(5-methyl-1,3,4-thiadiazol-2-yl)indole-6-sulfonamide] |
| 6050 | Cc1nnc(-n2cc(Cc3ccc(F)cc3)c3ccc(S(=O)(=O)NC4(C)CC4)cc32)s1 [Example 127, 3-[(4-Fluorophenyl)methyl]-N-(1-methylcyclopropyl)-1-(5-methyl-1,3,4-thiadiazol-2-yl)indole-6-sulfonamide] |
